Where two headings read alike, the source gives them in different places. One block for each compound: values may come before it.
Assays:
[1] = Pharmacokinetics in B6D2F1 mice; type: in vivo; settings: for Cmax / MRT / bioavailability: B6D2F1, mouse, plasma, 1 mg; for Cmax / MRT / AUG (uM × Min) IV / AUG (uM × Min) PO: one milligram; for bioavailability: po vs iv
Experimental: Solvents. […] SKI-DV281 was dissolved/suspended in a solution of 20% Cremophor +20% ethanol in saline.
Animal Experiments. For each compound, nineteen B6D2F1 mice were used. One mouse was used as control and the rest was divided into two groups with 9 mice per group. One milligram ([…] at 17 mg/ml) of compound was administered to the mice through oral gavage in one group and intravenously in the other group. At each time point (total of 9 time points) after the drug administration, one mouse from each group was sacrificed and approximately 400 μl of blood was collected into heparinized tubes through cardiac puncture. The plasma samples were analyzed as described below.
Analytical. The analysis of drug level in plasma is performed with an automated LC-MS system, which consists of a Prospekt-2 automated sample processor, interfaced with an Agilent 1100 LC-MS. The Prospekt-2 consists of two parts, high pressure eluter (HPE) and automated cartridge exchanger (ACE). The Agilent unit consists of a binary pump, an autosampler, the instrument will perform extraction and analysis automatically. The ACE picks up a new C, 18 solid phase […] (SPE) cartridge and places it into the clamp. The HPE activates the cartridge by passing acetonitrile and water through the cartridge. The autosampler picks up a predetermined amount of the plasma and the HPE flushes the plasma onto the SPE cartridge, washes it with water, then the sample is analyzed. When the cycle is completed, the ACE will fetch a new cartridge and cycle is repeated.
Data analysis and result. The pharmacokinetic curve for each compound was plotted intravenous versus oral (iv vs. po) (see FIGS. 27-29). Data analysis was performed with WinNonlin v.4 (Pharsight) using non-compartmental model.

[2] = Serial plasma levels in mice (bioavailability); type: in vivo; settings: mouse, oral, read-out: bioavailability after oral administration relative to intravenous or intraperitoneal injection
Excerpt: Toxicological and pharmacological studies in mice and dogs include determining the maximum tolerated doses, measuring plasma and tissue levels and bioavailability after oral and parenteral administration, and developing optimal formulations for both oral and parenteral use. […] One way to administer the drug is by continuous infusion, and we are currently exploring the use of small osmotic pumps that can be inserted into the peritoneal cavities of mice that will deliver a constant concentration continuously. All animal studies are performed under the standard guidelines. Initial dose escalation studies are performed via oral delivery on control mice in order to determine the maximum tolerated dose (MTD). Studies proceed at or below half-MTD. The inherent kinetics for disease engraftment of each model system and the appropriate windows for duration of drug administration are then determined. In the human mesothelioma xenograft model, tumor formation is evaluated, allowing for the establishment of 1-2 mm^3 tumors before drug administration. Survival data are presented using the Kaplan-Meyer method. We will compare the administration of the inhibitors by i.v. or i.p. bolus injection with continuous i.p. infusion using an osmotic pump.

[3] = test system: CML cell lines; test: cells; settings: read-out: IC50 on CML cell lines
[4] = test system: human glioblastoma, sarcoma, neuroblastoma and Ewing's sarcoma cell lines; test: cells; settings: read-out: average IC50s
[5] = test system: CML progenitors; test: cells; type: cell-based, human; settings: for inhibition at 0.01 µM: read-out: average inhibition of CML GM progenitors, 10 nM
Excerpt: (§1) In many experiments the CD34+ blasts were further depleted of GM, megakaryocyte or lymphocyte progenitors (CD 13, 14, 15, 46, 61, 19-) or of erythroid and megakaryocyte progenitors (CD36-, Glycophorin-, CD41/61-) in order to study the drug's effects on purer erythroid or GM progenitors.

[6] = Solubility; type: physicochemical
[7] = test system: R10-Negative cells; test: CFSE cell division and viability; type: cell-based
Experimental: Using the vital stain, CFSE, it is possible to determine the concentrations of different inhibitors required to arrest cell division and also to quantitate the number of quiescent cells. […] However with exposure to ST1571 at the same concentration many cells continue dividing and 80% are still viable after 6 days; even at 100 nM ST1571, some cells are able to continue dividing and the viability is still 24% at 6 days.

[8] = test system: normal progenitors; test: Inhibition of normal progenitors; type: cell-based, human
Excerpt: as §1

[9] = test system: R10 Negative and R10 Positive cells (M07e/p210bcr-abl); test: cells; settings: M-07e
[10] = target: T1, Ba/F3 cells transformed with Bcr-Abl wild-type (Homo sapiens, UniProt P00519, cells depend on it, form not given); test: MTS proliferation, Ba/F3 Bcr-Abl wild-type; type: cell-based
T1 construct: fused on or other part: P11274 (Breakpoint cluster region protein)
Experimental: (§2) Presence of single point mutations was verified by sequencing. […] Parental cells were cultured in presence of 2 ng/mL interleukin-3 (IL-3, R&D, Wiesbaden, Germany). IL-3 independent Ba/F3 cells expressing wild-type and mutant BCR-ABL were generated by electroporation and transformed upon withdrawal of IL-3. Expression of Bcr-Abl was confirmed by western blot and flow-cytometric analysis.
(§3) Proliferation was measured using a MTS tetrazolium-based method by absorption of formazam at 490 nm (CellTiter 96, Promega, Madison, Wis., USA). Measures were taken as triplicates after 24 and 48 hours of culture without and in the presence of inhibitor at the indicated concentrations.

[11] = target: T2, Bcr-Abl wild-type (Homo sapiens, UniProt P00519); test: Bcr-Abl tyrosine phosphorylation in Ba/F3 cells, wild-type; type: cell-based
T2 construct: expressed in transfected cells; host or cells: Ba/F3 cells (electroporation, IL-3 independent); the other entry of the earlier key: BCR (P11274, Breakpoint cluster region protein)

[12] = target: Bcr-Abl E255K (Homo sapiens, UniProt P00519, E255K)
Experimental: (§4) Ba/F3 cells were cultured for 2,5 hours without and in presence of inhibitor at the indicated concentrations. Cell lysis, SDS-PAGE and immunoblotting were done as described previously.^42 Anti-Abl antibodies were obtained from Pharmingen (8E9) (BD Biosciences, Heidelberg, Germany) and Calbiochem-Novabiochem (Ab3) (Schwalbach, Germany). Antibodies to phosphotyrosine were purchased from Upstate Biotechnology (4G10) (Biozol, Eching, Germany) and Transduction (PY20) (BD Biosciences, Heidelberg, Germany). Bands were visualized using the ECL system (Amersham, Braunschweig, Germany).

[13] = target: Bcr-Abl H396P (Homo sapiens, UniProt P00519, H396P)
Experimental: as §4

[14] = target: Bcr-Abl Y253H (Homo sapiens, UniProt P00519, Y253H)
Experimental: as §4

[15] = target: Bcr-Abl E255V (Homo sapiens, UniProt P00519, E255V)
Experimental: as §4

[16] = test system: Ba/F3 cells expressing P loop mutant E255V; test: MTS proliferation, Ba/F3 Bcr-Abl E255V; type: cell-based
Experimental: as §2, §3

[17] = test system: parental Ba/F3 cells; test: MTS proliferation, parental Ba/F3 cells; type: cell-based; settings: read-out: IC50, unspecific growth inhibition
Excerpt: […]. Lancet, 359: 487-491, 2002; incorporated herein by reference). Briefly, RT-PCR fragments derived from clinical samples were cloned into pBlueskript SK+ p185^bcr-abl (Stratagene, Amsterdam, NL), and subcloned into pcDNA3.1/Zeo (+) (Invitrogen, Leek, NL) and Mig EGFP (Bai, R. Y., Ouyang, T., Miething, C., Morris, S. W., Peschel, C., and Duyster, J. Nucleophosmin-anaplastic lymphoma kinase associated with anaplastic large-cell lymphoma activates the phosphatidylinositol 3-kinase/Akt antiapoptotic signaling pathway. Blood, 96: 4319-4327, 2000; incorporated herein by reference). Presence of single point mutations was verified by sequencing. Ba/F3 cells were maintained in RPMI 1640 growth media (Gibco, Karlsruhe, Germany) containing 10% fetal calf serum (Gibco) and P/S (Gibco) (200 U penicillin per mL and 200 μg streptomycin per mL). Parental cells were cultured in presence of 2 ng/mL interleukin-3 (IL-3, R&D, Wiesbaden, Germany). IL-3 independent Ba/F3 cells expressing wild-type and mutant BCR-ABL were generated by electroporation and transformed upon withdrawal of IL-3. Expression of Bcr-Abl was confirmed by western blot and flow-cytometric analysis.
Proliferation was measured using a MTS tetrazolium-based method by absorption of formazam at 490 nm (CellTiter 96, Promega, Madison, Wis., USA). […]

[18] = test system: Ba/F3 cells expressing P loop mutant Y253H; test: MTS proliferation, Ba/F3 Bcr-Abl Y253H; type: cell-based
Experimental: as §2, §3

[19] = target: T3, Bcr-Abl/T3151 (Homo sapiens, UniProt P00519, T315I); test: Bcr-Abl tyrosine phosphorylation in Ba/F3 cells, T3151; type: cell-based
T3 construct: expressed in transfected cells; host or cells: Ba/F3 cells; the other entry of the earlier key: BCR (P11274, Breakpoint cluster region protein)

[20] = target: T4, Ba/F3 cells transformed with Bcr-Abl wild-type (Homo sapiens, UniProt P00519); test: MTS proliferation, Ba/F3 Bcr-Abl wild-type; type: cell-based; settings: for GI50: read-out: IC50, growth inhibition
T4 construct: other: von Bubnoff et al. 2002; other: 48 hours of culture; fused on or other part: P11274 (Breakpoint cluster region protein)
Experimental: as §2, §3

[21] = test system: Ba/F3 cells expressing P loop mutant E255K; test: MTS proliferation, Ba/F3 Bcr-Abl E255K; type: cell-based
Experimental: as §2, §3

[22] = intravenous, read-out: Cmax (uM) IV
[23] = intravenous, read-out: MRT (Min) IV (converted)
[24] = oral gavage, read-out: Cmax (uM) PO
[25] = oral gavage, read-out: MRT (Min) PO (converted)

Cmax [1, 22]: 90 µM | MRT [1, 23]: 103 min | Cmax [1, 24]: 3.2 µM | MRT [1, 25]: 126 min | bioavailability [1]: 6.6% | AUG (uM × Min) IV ([1]; intravenous): 2395 µM·min | AUG (uM × Min) PO ([1]; oral gavage): 158 µM·min | bioavailability [2]: ~8%
SMILES: Cn1c(=O)c(-c2c(Cl)cccc2Cl)cc2cnc(Nc3cccc(CO)c3)nc21 [PD166326, 6-(2,6-Dichlorophenyl)-2-(3-hydroxymethylphenylamino)-8-methyl-8H-pyrido[2,3-d]pyrimidin-7-one]

SMILES: CSc1cccc(Nc2ncc3cc(-c4c(Cl)cccc4Cl)c(=O)n(C)c3n2)c1 [PD173955]
IC50 [3]: 2 to 35 nM | IC50 [4]: 400 to 1000 nM | CML erythroid progenitors' exaggerated response to EPO alone or KL alone ([5]; 10 nM): almost completely blocked | IC50 ([5]; Homo sapiens, read-out: IC50 for CML progenitors, varies in different patients): 1.5 to 7.5 nM | inhibition at 0.01 µM ([5]; Homo sapiens, G- + GM + KL): 34% | inhibition at 0.01 µM ([5]; Homo sapiens, G- + GM-CSF at 0.03 ng/ml): 68% | inhibition at 0.01 µM ([5]; Homo sapiens, G- + GM-CSF at 10 ng/ml): 61% | inhibition at 0.01 µM ([5]; Homo sapiens, KL alone at 50-100 ng/ml): 83% | IC50 ([5]; read-out: IC50 for CML progenitors, varies in different patients): ~2 nM | solubility [6]: quite insoluble | cell division (CFSE) ([7]; 25 nM, after one division by Day 2): subsequent divisions are blocked | effect on normal erythroid progenitors ([8]; 10 nM): unaffected | inhibition of normal progenitors ([8]; 10 nM, any of the cytokines singly or in combination): no inhibition | IC50 ([8]; Homo sapiens): 350 nM | IC50 [9]: ~2 nM

SMILES: Cc1cc(Nc2ncc3cc(-c4c(Cl)cccc4Cl)c(=O)n(C)c3n2)ccc1F [PD180970]
fold higher concentrations than the most active compounds [10]: 5 fold | concentration of complete disappearance of phosphotyrosine Bcr-Abl [11]: 250 nM | concentration of complete disappearance of phosphotyrosine Bcr-Abl [12]: 1 µM | concentration of complete disappearance of phosphotyrosine Bcr-Abl [13]: 250 nM | concentration of complete disappearance of phosphotyrosine Bcr-Abl [14]: 2 µM | concentration of complete disappearance of phosphotyrosine Bcr-Abl [15]: 2 µM | cellular IC95 [16]: 935 nM | IC50 [17]: 830 nM | cellular IC95 [18]: 770 nM | activity (autophosphorylation) of Bcr-Abl/T3151 [19]: did not impair

IC95, growth inhibition ([20]; 48 hours of culture): 515 nM | GI50 ([20]; 48 hours of culture): 115 nM
SMILES: Cn1c(=O)c(-c2c(Cl)cccc2Cl)cc2cnc(Nc3ccc(NC(=O)CCCCCNC(=O)CCCC[C@@H]4SC[C@@H]5NC(=O)N[C@@H]54)cc3)nc21 [SKI DV 1-10 biotinyl, 2-{4-[6-(Biotinamido)hexanamido]phenylamino}-6-(2,6-dichlorophenyl)-8-methyl-8H-pyrido[2,3-d]pyrimidin-7-one]

IC95, growth inhibition [20]: 40 nM | GI50 ([20]; ba/f3 cells transformed with bcr-abl wild-type): 9 nM | Cmax [1, 22]: 224 µM | MRT [1, 23]: 174 min | Cmax [1, 24]: 10 µM | MRT [1, 25]: 294 min | bioavailability [1]: 4% | AUG (uM × Min) IV ([1]; intravenous): 20319 µM·min | AUG (uM × Min) PO ([1]; oral gavage): 826 µM·min
SMILES: Cn1c(=O)c(-c2c(Cl)cccc2Cl)cc2cnc(Nc3cccc(N)c3)nc21 [SKI DV 2-43, 2-(3-Aminophenylamino)-6-(2,6-dichlorophenyl)-8-methyl-8H-pyrido[2,3-d]pyrimidin-7-one]
cellular IC95 [16]: 200 nM | cellular IC95 [21]: 110 nM | cellular IC95 [18]: 125 nM

SMILES: Cc1ccc(NC(=O)c2ccc(CN3CCN(C)CC3)cc2)cc1Nc1nccc(-c2cccnc2)n1 [STI-571]
viability at […] ([7]; 144 h, 25 nM, after 6 days): 80% | viability at 0.1 µM ([7]; 144 h, 100 nM, at 6 days): 24%

Reference: patent US20050009849A1, “Pyridopyrimidine kinase inhibitors” (priority 2003, published 2005)
